The values that follow come from patent publication US7423177B2, “Carboxamide derivatives as therapeutic agents” (TransTech Pharma, Inc., priority 2001, dated 2008).

Assay [1] addresses T1, RAGE (sRAGE) binding to Carboxymethyl Lysine (CML) (Homo sapiens, UniProt Q15109).
T1 construct: extracellular domain can be isolated by proteolysis of RAGE to generate soluble RAGE (sRAGE) comprised of the V and C domains
Kind of assay: ELISA assay: inhibition of sRAGE binding to plate-bound CML. Particulars: ligand CML coated on plate, concentration at which 50% signal has been inhibited. As to the method:
(§1) This method is also described and claimed in co-pending U.S. Ser. No. 09/799,152 filed Mar. 5, 2001.
(§2) S100b, β-amyloid and CML (500 ng/100 μL/well) in 100 mM sodium bicarbonate/sodium carbonate buffer (pH 9.8) is loaded onto the wells of a NUNC Maxisorp flat bottom 96 -well microtitre plate. The plate is incubated at 4° C. overnight. The wells are aspirated and treated with 50 mM imidazole buffer saline (pH 7.2) (with 1 mM CaCl2/MgCl2) containing 1% bovine serum albumin (BSA) (300 μL/well) for two h at 37° C.
(§3) Test compounds are dissolved in nanopure water (concentration: 10-100 μM). DMSO may be used as co-solvent. 25 μL of test compound solution in 2% DMSO is added, along with 75 μL SRAGE (4.0×10^−4 mg/mL FAC) to each well and samples are incubated for 1 h at 37° C. The wells are washed 3 times with 155 mM NaCl pH 7.2 buffer saline and are soaked 10 seconds between each wash.
(§4) Non-Radioactive Binding is Performed by Adding:
(§5) 10 μL Biotinylated goat F(ab′)2 Anti-mouse IgG. (8.0×10^−4 mg/mL, FAC)
(§6) 10 μL Alk-phos-Sterptavidin (3×10^−3 mg/mL FAC)
(§7) 10 μL Polyclonal antibody for sRAGE (FAC 6.0×10^−3 mg/mL)
(§8) to 5 mL 50 mM imidazole buffer saline (pH 7.2) containing 0.2% bovine serum albumin and 1 mM […]. The mixture is incubated for 30 minutes at 37° C. 100 μL complex is added to each well and incubation is allowed to proceed at rt for 1 h. Wells are washed 3 times with wash buffer and soaked 10 s between each wash. 100 μL 1 mg/mL (pNPP) in 1 M diethanolamine (pH adjusted to 9.8 with HCl) is added. Color is allowed to develop in the dark for 1 to 2 h at rt. The reaction is quenched with 10 μL of stop solution (0.5 N NaOH in 50% ethanol) and the absorbance is measured spectrophotometrically with a microplate reader at 405 nm.
(An ELISA detects its analyte on a solid surface through an enzyme-linked reagent.)

In assay [2] the target is T2, RAGE (sRAGE) binding to β-amyloid (Homo sapiens, UniProt Q15109).
T2 construct: extracellular domain can be isolated by proteolysis of RAGE to generate soluble RAGE (sRAGE) comprised of the V and C domains
In words: ELISA assay: inhibition of sRAGE binding to plate-bound β-amyloid. Particulars: ligand β-amyloid coated on plate, concentration at which 50% signal has been inhibited. Here is the method:
as §1, §2, §3, §4, §5, §6, §7, §8

Assay [3] has as its target T3, RAGE (sRAGE) binding to S100b (Homo sapiens, UniProt Q15109).
T3 construct: extracellular domain can be isolated by proteolysis of RAGE to generate soluble RAGE (sRAGE) comprised of the V and C domains
Kind of assay: ELISA assay: inhibition of sRAGE binding to plate-bound S100b. Particulars: ligand S100b coated on plate, concentration at which 50% signal has been inhibited, read-out: ELISA Assay IC50 (μM) S-100b. Here is the method: as §1, §2, §3, §4, §5, §6, §7, §8

T2 sequence (Q15109 23-342 limits assumed): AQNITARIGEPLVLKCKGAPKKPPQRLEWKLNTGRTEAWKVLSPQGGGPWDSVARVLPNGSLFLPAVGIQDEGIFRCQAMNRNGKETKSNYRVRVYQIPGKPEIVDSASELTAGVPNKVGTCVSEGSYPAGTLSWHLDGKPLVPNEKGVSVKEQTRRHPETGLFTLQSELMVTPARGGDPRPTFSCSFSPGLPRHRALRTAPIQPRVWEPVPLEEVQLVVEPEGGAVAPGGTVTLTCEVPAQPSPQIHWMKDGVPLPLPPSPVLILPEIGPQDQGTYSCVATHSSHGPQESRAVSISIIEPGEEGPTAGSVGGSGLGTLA
T3 sequence (Q15109 23-342 limits assumed): as above
T1 sequence (Q15109 23-342 limits assumed): as above

As a reminder, the IC50 is the concentration needed to halve the response being measured. For the compound `CCCCN(C(=O)[C@H](N)Cc1ccc(OCc2ccccc2)cc1)c1cccc(OCCCN(CC)CC)c1` [Example 21, (2R)-2-amino-3-[4-(benzyloxy)phenyl]propionic Acid 3-(3-diethylaminopropoxy)-N-butylaniline Amide], the half-inhibitory concentration (IC50) in assay [1], in assay [2] and in assay [3] was 1 to 5 µM throughout.

In the case of `CCCCOc1cc(OCCCN(CC)CC)ccc1NC(=O)C(CC1CCN(C(=O)OC(C)(C)C)CC1)NC(=O)OCC1c2ccccc2-c2ccccc21` (stereo not drawn) [Example 22, 3-(1-Tert-butoxycarbonylpiperidin-4-yl)-2-(9-fluorenylmethoxycarbonylamino)propionic Acid 4-Diethylaminopropoxy-2-butoxyaniline Amide], the IC50 lay in the range of 0.5 to 1 µM in assay [1], 0.5 to 1 µM in assay [2] and 1 to 5 µM in assay [3].

Consider `CCCCOc1cc(OCCCN(CC)CC)ccc1NC(=O)C(CC1CCNCC1)NC(=O)OCC1c2ccccc2-c2ccccc21` (stereo not drawn) [Example 23, 3-(Piperidin-4-yl)-2-(9-fluorenylmethoxycarbonylamino)propionic Acid 4-Diethylaminopropoxy-2-butoxyaniline Amide], for which the IC50 fell in the range of 1 to 5 µM in assay [1], 0.5 to 1 µM in assay [2] and 0.5 to 1 µM in assay [3].

In the case of `CCCCOc1cc(OCCCN(CC)CC)ccc1NC(=O)C(CC1CCN(Cc2ccccc2)CC1)NC(=O)OCC1c2ccccc2-c2ccccc21` (stereo not drawn) [Example 24, 3-(1-Benzylpiperidin-4-yl)-2-(9-fluorenylmethoxycarbonylamino)propionic Acid 4-Diethylaminopropoxy-2-butoxyaniline Amide], the IC50 in assay [1] is below 0.5 µM; in assay [2], 0.5 to 1 µM; in assay [3], 0.5 to 1 µM.

For the compound `CCCCOc1cc(OCCCN(CC)CC)ccc1NC(=O)C(N)CC1CCN(Cc2ccccc2)CC1` (stereo not drawn) [Example 25, 3-(1-Benzylpiperidin-4-yl)-2-aminopropionic Acid 4-Diethylaminopropoxy-2-butoxyaniline Amide], the concentration for half-maximal inhibition (IC50) lay within 10 to 20 µM in assay [1], 10 to 20 µM in assay [2] and 5 to 10 µM in assay [3].

In the case of `CCCCOc1cc(OCCCN(CC)CC)ccc1NC(=O)C(CC1CCN(C(=O)OCc2ccccc2)CC1)NC(=O)OCC1c2ccccc2-c2ccccc21` (stereo not drawn) [Example 26, 3-(1 -Benzyloxycarbonylpiperidin-4-yl)-2-(9-fluorenylmethoxycarbonyamino)propionic Acid 4-Diethylaminopropoxy-2-butoxyaniline Amide], the 50% inhibitory concentration (IC50) in assay [1] lay within 0.5 to 1 µM; in assay [2], 1 to 5 µM; in assay [3], 1 to 5 µM.

On to `CCCCOc1cc(OCCCN(CC)CC)ccc1NC(=O)C(CC1CCN(C(=O)c2ccccc2)CC1)NC(=O)OCC1c2ccccc2-c2ccccc21` (stereo not drawn) [Example 27, 3-(1 -Benzoylpiperidin-4-yl)-2-(9-fluorenylmethoxycarbonylamino)propionic Acid 4-Diethylaminopropoxy-2-butoxyaniline Amide], for which the IC50 in assay [1], in assay [2] and in assay [3] was 1 to 5 µM throughout.

With `CCCCOc1cc(OCCCN(CC)CC)ccc1NC(=O)C(CC1CCN(C(=O)c2ccccc2)CC1)NC(=O)c1ccccc1` (stereo not drawn) [Example 28, 3-(1-Benzoylpiperidin-4-yl)-2-benzoylaminopropionic Acid 4-Diethylaminopropoxy-2-butoxyaniline Amide], the IC50 in assay [1] was in the range of 1 to 5 µM; in assay [2], 5 to 10 µM; in assay [3], 5 to 10 µM.

On to `CCCCOc1cc(OCCCN(CC)CC)ccc1NC(=O)C(CC1CCCN(C(=O)OC(C)(C)C)C1)NC(=O)OCC1c2ccccc2-c2ccccc21` (stereo not drawn) [Example 29, 3-(Tert-butoxycarbonylpiperidin-3-yl)-2-(9-fluorenylmethoxycarbonylamino)propionic Acid 4-Diethylaminopropoxy-2-butoxyaniline Amide], for which the concentration for half-maximal inhibition (IC50) in assay [1], in assay [2] and in assay [3] was 1 to 5 µM each time.

Take `CCCCOc1cc(OCCCN(CC)CC)ccc1NC(=O)C(CC1CCCNC1)NC(=O)OCC1c2ccccc2-c2ccccc21` (stereo not drawn) [Example 30, 3-(Piperidin-3-yl)-2-(9-fluorenylmethoxycarbonylamino)propionic Acid 4-Diethylaminopropoxy-2-butoxyaniline Amide]: the half-inhibitory concentration (IC50) in assay [1], in assay [2] and in assay [3] was 0.5 to 1 µM in each case.

For “(2R)-2-tert-butoxycarbonylamino-3-[4-(benzyloxy)phenyl]propionic Acid 4-(3-diethylaminopropoxy)-N-isopropylaniline Amide [Example 15]”, the half-inhibitory concentration (IC50) fell in the range of 5 to 10 µM in assay [1], 1 to 5 µM in assay [2] and 1 to 5 µM in assay [3].
